pIC50: −log10 of the molar value.

For the test, the target named is T1, synthetic Aβ 1-40 (Homo sapiens, UniProt P05067).
T1 construct: synthetic Aβ 1-40
The experiment in a line: Competition binding assay ([3H]PIB as radioligand). Conditions: 2.7 nM [3H]PIB radioligand, phosphate buffer pH 7.5, 30 min room temperature. On the procedure:
Competition binding was performed in 384-well FB filter plates using synthetic Aβ 1-40 in 2.7 nM of [^3H]PIB (or another ^3H-labeled radioligand when so mentioned) in phosphate buffer at pH 7.5, by adding various concentrations of non-radioactive compounds originally dissolved in DMSO. The binding mixture was incubated for 30 min at room temperature, followed by vacuum filtration, and subsequentially by washing twice with 1% Triton-X100. Scintillation fluid was thereafter added to the collected Aβ 1-40 on the filter plate, and the activity of the bound remaining radioligand ([^3H]PIB or another ^3H-labeled radioligand) was measured using 1450 Microbeta from PerkinElmer. Specific binding was determined according to the competion binding assay described herein. The determined IC50's in the competion binding assays (using [^3H]PIB as radioligand) of compounds of the present invention are shown in Table 1.

T1 sequence (P05067 672-711 limits assumed): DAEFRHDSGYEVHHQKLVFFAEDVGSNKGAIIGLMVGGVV

What is called pIC50 is the negative decadic logarithm of the IC50, by convention in mol/L. A low value points to a large IC50. Turning to `CNc1ccc(-c2cc3cc(O)ccc3o2)c(F)n1` [2-(2-Fluoro-6-methylamino-pyridin-3-yl)-benzofuran-5-ol], the pIC50 is 7.74. The compound `Nc1ccc(-c2cc3cc(O)ccc3o2)nn1` [2-(6-Amino-pyridazin-3-yl)-benzofuran-5-ol] showed a pIC50 of 5.57. Regarding `COc1ccc2oc(-c3ccc(N)nn3)cc2c1` [6-(5-Methoxy-benzofuran-2-yl)-pyridazin-3-ylamine], the pIC50 is 6.04.

`NC(=O)c1ccc(-c2cc3ccccc3o2)cn1` [5-(1-Benzofuran-2-yl)pyridine-2-carboxamide] had a negative logarithm of the IC50 (pIC50) of 7.72. With `NC(=O)c1ccc(-c2cc3cc(O)ccc3o2)nc1` [6-(5-Hydroxy-benzofuran-2-yl)-nicotinamide], the pIC50 was 7.37. In the case of `COc1ccc2nc(-c3cc4ccccc4o3)cn2c1` [2-(1-benzofuran-2-yl)-6-methoxyimidazo[1,2-a]pyridine], the negative-log IC50 (pIC50) is 6.44.

Consider `CNc1ncc(-c2cc3cc(O)ccc3o2)cc1F` [2-(5-fluoro-6-methylamino-pyridin-3-yl)-benzofuran-5-ol], for which the pIC50 was 7.49. Consider `NC(=O)c1ccc(-c2cc3cc(O)ccc3o2)cn1` [5-(5-Hydroxy-benzofuran-2-yl)-pyridine-2-carboxylic acid amide], for which the pIC50 is 6.22. For the compound `COc1ccc2oc(-c3ccc(C(N)=O)nc3)cc2c1` [5-(5-Methoxy-benzofuran-2-yl)-pyridine-2-carboxylic acid amide], the pIC50 is 7.21. Compound `CNc1ccc(-c2cc3cc(O)ccc3o2)nc1F` [2-(6-Fluoro-5-methylamino-pyridin-2-yl)-benzofuran-5-ol] showed a pIC50 of 7.36. `NC(=O)c1ccc(-c2cc3ccccc3s2)cn1` [5-(1-benzothien-2-yl)pyridine-2-carboxamide] had a pIC50 of 7.52. In turn, `CNc1ccc(-c2cc3cc(O)ccc3o2)cn1` [2-(6-Methylamino-pyridin-3-yl)-benzofuran-5-ol] had a negative-log IC50 (pIC50) of 7.34.

As to `COc1ccc2oc(-c3ccc(C(N)=O)cn3)cc2c1` [6-(5-Methoxy-benzofuran-2-yl)-nicotinamide], the pIC50 is 7.48.

The compound `CNc1ccc(-c2cc3cc(OC)ccc3o2)cn1` [[5-(5-Methoxy-benzofuran-2-yl)-pyridin-2-yl]-methylamine] showed a pIC50 of 7.18.
